Data as given in article PMC9400670, “Establishing the selective phospholipid membrane coordination, permeation and lysis properties for a series of ‘druggable’ supramolecular self-associating antimicrobial amphiphiles” (Chemical Science, 2022).
In brackets after ≈: the same amount, converted by molar mass.

Assays:
MRSA USA300 = test: MIC50 determination and initial screening from OD600 growth curves, MRSA USA300; format: cell-based, Staphylococcus aureus
Description: The antimicrobial activity of SSAs 1–14 was established against both a model Gram-positive, clinically relevant methicillin resistant Staphylococcus aureus (MRSA), and a model Gram-negative, E. coli bacteria, Table 1. Here MIC50 values are given in mM to enable the derivation of molecular structure: antimicrobial efficacy: physical property relationships. […]
Data were acquired in endpoint mode. […]
Section 3: Microbial Methods
These methods were taken directly from UK Health and Security Office (UKHSA) standard operating […]
Preparation of Luria Broth media (LB): Yeast extract (5 g), tryptone (10 g) and sodium chloride (10 g) were dissolved in dH₂O (1 L) then divided into bottles and autoclaved.
Preparation of Luria Broth (LB) agar plates: Agar (6 g) was added to LB (400 mL) and autoclaved. Once cool, the LB agar was poured into sterile petri dishes under sterile conditions and allowed to set. LB plates were stored at 4 °C until use.
Preparation of bacterial plates: Sterile LB agar plates were streaked using Escherichia coli DH10B or USA300 Methicillin-Resistant Staphylococcus aureus then incubated at 37 °C overnight.
Preparation of Inoculum: An initial culture was made up by inoculating LB media (5 mL) with a single colony of bacteria under sterile conditions and incubated at 37 °C with shaking overnight. The following day, overnight bacterial cultures were subcultured into fresh LB medium to a starting OD600 […]
Preparation of 96 well microplate for screening: 20 mM solutions of each compound to be tested were made up using 5 % ethanol. The 1:100 cell suspension (150 µL) was pipetted into the wells and SSA compound solutions (30 µL) were added into each well. The final screening concentration for each compound was 3.3 mM in the well. These were incubated for 20 hours in a plate reader, with optical density readings being taken at 600 nm every 15 minutes. Optical density readings were plotted against time to produce growth curves. […]
individual wells under sterile conditions. Compounds (30 µL) were added to the wells to equal a total volume of 180 µL in the wells. Six repeats of each concentration for each compound were created each plate. The plates were sealed using parafilm, then incubated at 37°C in a microplate reader for 18-25 hours. Optical density readings were taken at 600 nm every 15 min. Data was used to generate […]
Calculation of MIC50: Growth curves were plotted using OD600 optical density readings in Microsoft ® Excel ® 2013. OD600 optical density readings 900 minutes from the start of each of these growth cultures for each concentration of compound were plotted in Origin ® 2015. The resultant curve was normalized and fitted using the Boltzmann fit to define the MIC50 values for each compound.

[1] = tested on: E. coli total lipid vesicles; test: Synthetic phospholipid vesicle membrane binding assay (fluorescence polarisation), E. coli total vesicles; details: lipid vesicles added to SSA (0.15 mM); n = 3; error = standard error; SSA alone set to 100 mP
Method: (§1) For intrinsically fluorescent SSAs 5, 6 and 8–12, FP titration experiments enabled the observation of SSA: phospholipid vesicle interactions. Here, an increase in FP value indicates an increase in the apparent size of the SSA as it interacts with the phospholipid vesicle. […]
(§2) Fluorescence polarisation: Lipid films were resuspended in Buffer (150 mM KCl, 10 mM HEPES, pH 7.4, 2 mM EGTA) and subjected to 9 freeze-thaw cycles in liquid nitrogen and extruded 20 times through a 200 nm polycarbonate membrane. Black bottom 96-well plates were prepared by serially diluting desired vesicle solution across the plate, the appropriate SSA solution (100 µL, 0.15 mM) was added to each well to give a total well volume of 200 µL. Fluorescent SSA solutions were set to a FP value of 100 mP. Data were acquired in endpoint mode. […]

PE-PG mix lipid vesicles = test: Synthetic phospholipid vesicle membrane binding assay (fluorescence polarisation), PE-PG mix vesicles; details: lipid vesicles added to SSA (0.15 mM); n = 3; error = standard error; SSA alone set to 100 mP
Method: as §1, §2

[2] = Staphylococcus aureus, 15 h, MRSA USA300, n = 3, 0.5 McFarland standard, after 900 min, number in bracket = efficacy rank, SSA 11 estimated due to data quality
[3] = Staphylococcus aureus, 15 h, Table S3, conversion of the mM values of Table 1, MRSA USA300, after 900 mins

| SMILES | inhibition at 3300 µM (MRSA USA300; Staphylococcus aureus, 15 h, 3.3 mM, after 900 min, read-out: initial antimicrobial screening, inhibition of growth, MRSA) | initial antimicrobial screening outcome, MRSA (MRSA USA300; Table S3, screening at 3.3 mM) | MIC50 (MRSA USA300; [2]) | MIC50 (MRSA USA300; [3]) | increase in FP, E. coli total [1] | increase in FP, PE-PG mix (PE-PG mix lipid vesicles) | MIC50 MRSA (MRSA USA300; Table S3, conversion of the mM values of Table 1, MRSA USA300, after 900 mins) |
| --- | --- | --- | --- | --- | --- | --- | --- |
| Cc1ccc2nc(NC(=O)NCS(=O)(=O)O)sc2c1 [SSA 7] | < 10% | Fail |  |  |  |  |  |
| Cc1ccc2nc(-c3ccc(NC(=O)NCCC(=O)O)cc3)sc2c1 [SSA 9] |  |  | 1200 µM | 760 µg/mL | 130 ± 5 mP | 35 ± 2 mP |  |
| O=C(NCS(=O)(=O)O)Nc1ccc(C(F)(F)F)cc1 [SSA 3] |  |  |  |  |  |  | 132 µg/mL (≈ 443 µM) |
| O=C(O)CNC(=O)Nc1ccc(C(F)(F)F)cc1 [SSA 4] |  |  |  | 574 µg/mL |  |  |  |
| O=C(NCS(=O)(=O)O)Nc1ccccc1-c1nc2ccccc2s1 [SSA 5] |  |  |  | 599 µg/mL | 32 ± 3 mP | 36 ± 3 mP |  |
| O=C(NCS(=O)(=O)O)Nc1ccc(-c2nc3ccccc3s2)cc1 [SSA 8] |  |  | 1150 µM | 696 µg/mL | 24 ± 3 mP | 32 ± 1 mP |  |
| O=C(NCS(=O)(=O)O)Nc1ccc(C(F)(F)F)cc1 [SSA 1] |  |  |  | 248 µg/mL |  |  |  |
| Cc1ccc2nc(-c3ccc(NC(=O)NCS(=O)(=O)O)cc3)sc2c1 [SSA 6] |  |  |  | 576 µg/mL | 20 ± 1 mP | 9 ± 1 mP |  |
| Cc1ccc2nc(-c3ccc(NC(=O)NCC(=O)O)cc3)sc2c1 [SSA 11] |  |  | 310 to 630 µM | 181 to 367 µg/mL | 66 ± 4 mP | 45 ± 2 mP |  |
| Cc1ccc2nc(-c3ccc(NC(=S)NCS(=O)(=O)O)cc3)sc2c1 [SSA 12] |  |  |  |  | 199 ± 5 mP | 107 ± 3 mP |  |
| Cc1ccc2nc(-c3ccc(NC(=O)NCCCS(=O)(=O)O)cc3)sc2c1 [SSA 10] |  |  | 590 µM | 382 µg/mL | 15 ± 2 mP | 21 ± 2 mP |  |
